This note sets out measurements from patent US20260315452A1, “PROTEASE INHIBITORS AND USES THEREOF” (priority 2023, published 2026).

The test system of one assay is SARS-CoV-2. Put plainly: Anti-SARS-CoV-2 activity in A549 cells expressing the human ACE2 receptor (inhibition of SARS-CoV-2 replication). Type of assay: cell-based. The settings on record: for EC50: Severe acute respiratory syndrome coronavirus 2, A549-ACE2, 24 h, read-out: Antiviral Activity (EC50); for antiviral potency in A549 cells in comparison with compound Ref-2: versus Ref-2 (FIG. 7).

The next assay has as its target SARS-CoV-2 3CLpro (Severe acute respiratory syndrome coronavirus 2, UniProt P0DTD1). Put plainly: biochemical. The conditions noted are these: inhibition of SARS-CoV-2 3CLpro; 15 nM 3CLpro, 25 μM fluorogenic substrate, 37° C.; read-out: Inhibitory Activity (IC50).

Turning to `CNC(=O)c1cc(Br)cc([N+](=O)[O-])c1N[C@@H]1CCCC[C@@H]1NC(=O)C[C@@H]1CCNC1=O` [Compound 7, 5-bromo-N-methyl-3-nitro-2-(((1R, 2S)-2-(2-((S)-2-oxopyrrolidin-3-yl)acetamido)cyclohexyl)amino)benzamide], the EC50 in the assay on SARS-CoV-2 is above 10000 nM. Besides, the IC50 at SARS-CoV-2 3CLpro was 1000 to 10000 nM.
On the same counts, the results for `CNC(=O)c1cc(Br)cc([N+](=O)[O-])c1N[C@@H]1CCCC[C@@H]1NC(=O)c1cncc2cc(F)ccc12` [Compound 8, N-((1S, 2R)-2-((4-bromo-2-(methylcarbamoyl)-6-nitrophenyl)amino)cyclohexyl)-7-fluoroisoquinoline-4-carboxamide] are 100 to 1000 nM and below 100 nM.
On the same counts, the results for `CNC(=O)c1cc(Br)cc([N+](=O)[O-])c1N[C@@H]1CCCC[C@@H]1NC(=O)c1cncc2ccc(F)cc12` [Compound 9, N-((1S, 2R)-2-((4-bromo-2-(methylcarbamoyl)-6-nitrophenyl)amino)cyclohexyl)-6-fluoroisoquinoline-4-carboxamide] are 100 to 1000 nM and below 100 nM.
On the same counts, the results for `CNC(=O)c1cc(Br)cc([N+](=O)[O-])c1NC1CC2(C1)CN(C(=O)c1cncc3ccccc13)C2` [Compound 13, 5-bromo-2-((2-(isoquinoline-4-carbonyl)-2-azaspiro[3.3]heptan-6-yl)amino)-N-methyl-3-nitrobenzamide] are above 10000 nM and at least 10000 nM.
Consider `O=C(N[C@H]1CCCC[C@H]1Nc1c(C(=O)N2CC(F)(F)C2)cc(Br)cc1[N+](=O)[O-])c1cncc2ccccc12` [Compound 14, N-((1S, 2R)-2-((4-bromo-2-(3,3-difluoroazetidine-1-carbonyl)-6-nitrophenyl)amino)cyclohexyl)isoquinoline-4-carboxamide], for which, in the assay with SARS-CoV-2, the EC50 fell in the range of 100 to 1000 nM. Further, the IC50 at SARS-CoV-2 3CLpro lay in the range of 100 to 1000 nM.
For `O=C(NC1(C(F)(F)F)CC1)c1cc(Br)cc([N+](=O)[O-])c1N[C@@H]1CCCC[C@@H]1NC(=O)c1cncc2ccccc12` [Compound 16, N-((1S, 2R)-2-((4-bromo-2-nitro-6-((1-(trifluoromethyl)cyclopropyl)carbamoyl)phenyl)amino)cyclohexyl)isoquinoline-4-carboxamide], the EC50 with SARS-CoV-2 fell in the range of 1000 to 10000 nM. For the same compound, the IC50 at SARS-CoV-2 3CLpro was 100 to 1000 nM.
For the compound `CNC(=O)c1cc(Br)cc([N+](=O)[O-])c1NC1CN(C(=O)c2cncc3ccccc23)CC1(F)F` (stereo not drawn) [Compound 18, 5-bromo-2-((4,4-difluoro-1-(isoquinoline-4-carbonyl)pyrrolidin-3-yl)amino)-N-methyl-3-nitrobenzamide], in the assay on SARS-CoV-2, the EC50 fell in the range of 100 to 1000 nM. Moreover, on SARS-CoV-2 3CLpro, the IC50 fell in the range of 100 to 1000 nM.
For the compound `O=C(NC1CC(F)(F)C1)c1cc(Br)cc([N+](=O)[O-])c1N1CCC2(CCN(C(=O)c3cncc4ccccc34)C2)C1` (stereo not drawn) [Compound 26, 5-bromo-N-(3,3-difluorocyclobutyl)-2-(7-(isoquinoline-4-carbonyl)-2,7-diazaspiro[4.4]nonan-2-yl)-3-nitrobenzamide], in the assay on SARS-CoV-2, the EC50 fell in the range of 100 to 1000 nM. Besides, the IC50 on SARS-CoV-2 3CLpro was below 100 nM.
On the same counts, the results for `O=C(NC1CC(F)(F)C1)c1cc(Br)cc([N+](=O)[O-])c1N1CCC2(CN(C(=O)c3cncc4ccccc34)CC2(F)F)C1` (stereo not drawn) [Compound 27, 5-bromo-2-(9,9-difluoro-7-(isoquinoline-4-carbonyl)-2,7-diazaspiro[4. 4]nonan-2-yl)-N-(3,3-difluorocyclobutyl)-3-nitrobenzamide] are 100 to 1000 nM and below 100 nM.
For the compound `O=C(NC1CC(F)(F)C1)c1cc(Cl)cc([N+](=O)[O-])c1N[C@@H]1COCC[C@@H]1NC(=O)c1cncc2ccccc12` [Compound 29, N-((3S, 4S)-3-((4-chloro-2-((3,3-difluorocyclobutyl)carbamoyl)-6-nitrophenyl)amino)tetrahydro-2H-pyran-4-yl)isoquinoline-4-carboxamide], in the assay with SARS-CoV-2, the “antiviral potency in A549 cells in comparison with compound Ref-2” value (“antiviral potency in A549 cells” for short) was “better antiviral potency” and the EC50 was below 100 nM. For the same compound, the half-maximal inhibitory concentration (IC50) at SARS-CoV-2 3CLpro is below 100 nM.
As to `O=C(NC1CC(F)(F)C1)c1cc(Br)cc([N+](=O)[O-])c1N[C@H]1CN(C(=O)c2cncc3ccccc23)CCC1(F)F` [Compound 33, (S)-5-bromo-2-((4,4-difluoro-1-(isoquinoline-4-carbonyl)piperidin-3-yl)amino)-N-(3,3-difluorocyclobutyl)-3-nitrobenzamide], the EC50 with SARS-CoV-2 is below 100 nM. Further, the IC50 on SARS-CoV-2 3CLpro is below 100 nM.
Regarding `O=C(NC1CC(F)(F)C1)c1cc(Br)cc([N+](=O)[O-])c1N[C@@H]1CCCN(C(=O)c2cncc3ccccc23)C1` [Compound 34, (R)-5-bromo-N-(3,3-difluorocyclobutyl)-2-((1-(isoquinoline-4-carbonyl)piperidin-3-yl)amino)-3-nitrobenzamide], the EC50 in the assay on SARS-CoV-2 was below 100 nM. In addition, the IC50 on SARS-CoV-2 3CLpro was below 100 nM.
Turning to `CNC(=O)c1cc(Br)cc(C(F)(F)F)c1N[C@H]1CN(C(=O)c2cncc3ccccc23)CCC1(F)F` [Compound 35, (S)-5-bromo-2-((4,4-difluoro-1-(isoquinoline-4-carbonyl)piperidin-3-yl)amino)-N-methyl-3-(trifluoromethyl)benzamide], the EC50 with SARS-CoV-2 is below 100 nM. Besides, on SARS-CoV-2 3CLpro, the IC50 was below 100 nM.
`O=C(c1cc(Br)cc([N+](=O)[O-])c1N[C@H]1CN(C(=O)c2cncc3ccccc23)CCC1(F)F)N1CC(F)(F)C1` [Compound 36, (S)-(5-bromo-2-((4,4-difluoro-1-(isoquinoline-4-carbonyl)piperidin-3-yl)amino)-3-nitrophenyl)(3,3-difluoroazetidin-1-yl)methanone]: the EC50 in the assay with SARS-CoV-2 is below 100 nM. The IC50 on SARS-CoV-2 3CLpro is below 100 nM.
In the case of `O=C(N[C@@H]1CCOC1)c1cc(Br)cc([N+](=O)[O-])c1N[C@H]1CN(C(=O)c2cncc3ccccc23)CCC1(F)F` [Compound 37, 5-bromo-2-(((S)-4,4-difluoro-1-(isoquinoline-4-carbonyl)piperidin-3-yl)amino)-3-nitro-N-((R)-tetrahydrofuran-3-yl)benzamide], in the assay on SARS-CoV-2, the “antiviral potency in A549 cells” value is given as “better antiviral potency” and the EC50 was below 100 nM. At SARS-CoV-2 3CLpro, the IC50 was below 100 nM.
Turning to `CC(C)(O)CNC(=O)c1cc(Cl)cc([N+](=O)[O-])c1N[C@H]1CN(C(=O)c2cncc3ccccc23)CCC1(F)F` [Compound 40, (S)-5-chloro-2-((4,4-difluoro-1-(isoquinoline-4-carbonyl)piperidin-3-yl)amino)-N-(2-hydroxy-2-methylpropyl)-3-nitrobenzamide], the EC50 with SARS-CoV-2 was below 100 nM. Besides, the IC50 on SARS-CoV-2 3CLpro was below 100 nM.
Take `Cn1cc(NC(=O)c2cc(Cl)cc([N+](=O)[O-])c2N[C@H]2CN(C(=O)c3cncc4ccccc34)CCC2(F)F)cn1` [Compound 41, (S)-5-chloro-2-((4,4-difluoro-1-(isoquinoline-4-carbonyl)piperidin-3-yl)amino)-N-(1-methyl-1H-pyrazol-4-yl)-3-nitrobenzamide]: in the assay with SARS-CoV-2, the “antiviral potency in A549 cells” value was “better antiviral potency” and the EC50 is below 100 nM. Besides, the IC50 on SARS-CoV-2 3CLpro was below 100 nM.
For `C=CCNC(=O)c1cc(Cl)cc([N+](=O)[O-])c1N[C@H]1CN(C(=O)c2cncc3ccccc23)CCC1(F)F` [Compound 42, (S)-N-allyl-5-chloro-2-((4,4-difluoro-1-(isoquinoline-4-carbonyl)piperidin-3-yl)amino)-3-nitrobenzamide], the EC50 in the assay on SARS-CoV-2 is below 100 nM. The IC50 on SARS-CoV-2 3CLpro was below 100 nM.

What is called EC50 is the concentration at which the effect is half-maximal. As a reminder, the IC50 is the midpoint of a concentration-inhibition curve.
